Reference: patent US8192962B2, “Processes for detecting toxic substances” (Daikin Industries, Ltd., priority 2001, dated 2012)

Test system: Stress protein genes
Test: DNA chip mRNA expression in yeast, stress protein genes (Table 6)
Format: cell-based, Saccharomyces cerevisiae S288C
In short: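 Chemical exposure: 2 h, log-phase S. cerevisiae S288C, YPD, 25° C., dose set to inhibit growth without death. Profiling: mRNA labeled by reverse transcription with Cy3- or Cy5-dUTP, hybridized to whole-genome array. Output: fluorescence ratio against untreated culture.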

Q: CCCCC[C@H](O)CC(=O)CCc1ccc(O)c(OC)c1 [(13), gingerol] was tested. Which “The level of expressed mRNA in the presence of chemical substance/The level of expressed mRNA in the absence of chemical substance” value (yeast gene YAL015C) did it give?
A: 1.2

Q: What about the “The level of expressed mRNA in the presence of chemical substance/The level of expressed mRNA in the absence of chemical substance” value (yeast gene YBL093C) of the same compound?
A: 2.1

Q: And the “The level of expressed mRNA in the presence of chemical substance/The level of expressed mRNA in the absence of chemical substance” value (yeast gene YBR044C)?
A: 1.2

Q: And the “The level of expressed mRNA in the presence of chemical substance/The level of expressed mRNA in the absence of chemical substance” value (yeast gene YBR054W)?
A: 1.5

Q: What about the “The level of expressed mRNA in the presence of chemical substance/The level of expressed mRNA in the absence of chemical substance” value (yeast gene YBR067C) of the same compound?
A: 0.9

Q: And the “The level of expressed mRNA in the presence of chemical substance/The level of expressed mRNA in the absence of chemical substance” value (yeast gene YBR126C)?
A: 2.1

Q: And the “The level of expressed mRNA in the presence of chemical substance/The level of expressed mRNA in the absence of chemical substance” value (yeast gene YCL035C)?
A: 2.8

Q: What about the “The level of expressed mRNA in the presence of chemical substance/The level of expressed mRNA in the absence of chemical substance” value (yeast gene YCR021C) of the same compound?
A: 0.9

Q: And the “The level of expressed mRNA in the presence of chemical substance/The level of expressed mRNA in the absence of chemical substance” value (yeast gene YCR083W)?
A: 1.8

Q: And the “The level of expressed mRNA in the presence of chemical substance/The level of expressed mRNA in the absence of chemical substance” value (yeast gene YDL022W)?
A: 1.5

Q: What about the “The level of expressed mRNA in the presence of chemical substance/The level of expressed mRNA in the absence of chemical substance” value (yeast gene YDL025C) of the same compound?
A: 1.2

Q: And the “The level of expressed mRNA in the presence of chemical substance/The level of expressed mRNA in the absence of chemical substance” value (yeast gene YDR033W)?
A: 0.7

Q: What about the “The level of expressed mRNA in the presence of chemical substance/The level of expressed mRNA in the absence of chemical substance” value (yeast gene YDR077W) of the same compound?
A: 1.0

Q: What about the “The level of expressed mRNA in the presence of chemical substance/The level of expressed mRNA in the absence of chemical substance” value (yeast gene YDR098C) of the same compound?
A: 1.2

Q: What about the “The level of expressed mRNA in the presence of chemical substance/The level of expressed mRNA in the absence of chemical substance” value (yeast gene YDR155C) of the same compound?
A: 3.3

Q: What about the “The level of expressed mRNA in the presence of chemical substance/The level of expressed mRNA in the absence of chemical substance” value (yeast gene YDR293C) of the same compound?
A: 2.3

Q: What about the “The level of expressed mRNA in the presence of chemical substance/The level of expressed mRNA in the absence of chemical substance” value (yeast gene YDR513W) of the same compound?
A: 1.8

Q: And the “The level of expressed mRNA in the presence of chemical substance/The level of expressed mRNA in the absence of chemical substance” value (yeast gene YDR519W)?
A: 2.5

Q: And the “The level of expressed mRNA in the presence of chemical substance/The level of expressed mRNA in the absence of chemical substance” value (yeast gene YEL039C)?
A: 0.5

Q: What about the “The level of expressed mRNA in the presence of chemical substance/The level of expressed mRNA in the absence of chemical substance” value (yeast gene YER042W) of the same compound?
A: 1.4

Q: What about the “The level of expressed mRNA in the presence of chemical substance/The level of expressed mRNA in the absence of chemical substance” value (yeast gene YER057C) of the same compound?
A: 1.0

Q: What about the “The level of expressed mRNA in the presence of chemical substance/The level of expressed mRNA in the absence of chemical substance” value (yeast gene YER125W) of the same compound?
A: 1.9

Q: What about the “The level of expressed mRNA in the presence of chemical substance/The level of expressed mRNA in the absence of chemical substance” value (yeast gene YFL014W) of the same compound?
A: 15.2

Q: And the “The level of expressed mRNA in the presence of chemical substance/The level of expressed mRNA in the absence of chemical substance” value (yeast gene YFL016C)?
A: 2.8

Q: What about the “The level of expressed mRNA in the presence of chemical substance/The level of expressed mRNA in the absence of chemical substance” value (yeast gene YFL020C) of the same compound?
A: 1.4

Q: What about the “The level of expressed mRNA in the presence of chemical substance/The level of expressed mRNA in the absence of chemical substance” value (yeast gene YFR052W) of the same compound?
A: 3.8

Q: What about the “The level of expressed mRNA in the presence of chemical substance/The level of expressed mRNA in the absence of chemical substance” value (yeast gene YGL073W) of the same compound?
A: 1.5

Q: What about the “The level of expressed mRNA in the presence of chemical substance/The level of expressed mRNA in the absence of chemical substance” value (yeast gene YGL115W) of the same compound?
A: 0.7

Q: And the “The level of expressed mRNA in the presence of chemical substance/The level of expressed mRNA in the absence of chemical substance” value (yeast gene YGR088W)?
A: 1.2

Q: What about the “The level of expressed mRNA in the presence of chemical substance/The level of expressed mRNA in the absence of chemical substance” value (yeast gene YHL028W) of the same compound?
A: 2.1

Q: What about the “The level of expressed mRNA in the presence of chemical substance/The level of expressed mRNA in the absence of chemical substance” value (yeast gene YHL046C) of the same compound?
A: 1.4

Q: And the “The level of expressed mRNA in the presence of chemical substance/The level of expressed mRNA in the absence of chemical substance” value (yeast gene YHR030C)?
A: 1.0

Q: What about the “The level of expressed mRNA in the presence of chemical substance/The level of expressed mRNA in the absence of chemical substance” value (yeast gene YHR057C) of the same compound?
A: 1.9

Q: What about the “The level of expressed mRNA in the presence of chemical substance/The level of expressed mRNA in the absence of chemical substance” value (yeast gene YHR104W) of the same compound?
A: 1.2

Q: And the “The level of expressed mRNA in the presence of chemical substance/The level of expressed mRNA in the absence of chemical substance” value (yeast gene YIL011W)?
A: 0.5

Q: What about the “The level of expressed mRNA in the presence of chemical substance/The level of expressed mRNA in the absence of chemical substance” value (yeast gene YIL033C) of the same compound?
A: 2.5

Q: What about the “The level of expressed mRNA in the presence of chemical substance/The level of expressed mRNA in the absence of chemical substance” value (yeast gene YIR037W) of the same compound?
A: 2.4

Q: And the “The level of expressed mRNA in the presence of chemical substance/The level of expressed mRNA in the absence of chemical substance” value (yeast gene YIR038C)?
A: 2.5

Q: What about the “The level of expressed mRNA in the presence of chemical substance/The level of expressed mRNA in the absence of chemical substance” value (yeast gene YJL128C) of the same compound?
A: 1.7

Q: What about the “The level of expressed mRNA in the presence of chemical substance/The level of expressed mRNA in the absence of chemical substance” value (yeast gene YJL159W) of the same compound?
A: 1.7

Q: And the “The level of expressed mRNA in the presence of chemical substance/The level of expressed mRNA in the absence of chemical substance” value (yeast gene YJL165C)?
A: 1.5

Q: What about the “The level of expressed mRNA in the presence of chemical substance/The level of expressed mRNA in the absence of chemical substance” value (yeast gene YJR045C) of the same compound?
A: 2.3

Q: What about the “The level of expressed mRNA in the presence of chemical substance/The level of expressed mRNA in the absence of chemical substance” value (yeast gene YJR090C) of the same compound?
A: 2.2

Q: What about the “The level of expressed mRNA in the presence of chemical substance/The level of expressed mRNA in the absence of chemical substance” value (yeast gene YKL161C) of the same compound?
A: 1.3

Q: And the “The level of expressed mRNA in the presence of chemical substance/The level of expressed mRNA in the absence of chemical substance” value (yeast gene YKL163W)?
A: 1.5

Q: What about the “The level of expressed mRNA in the presence of chemical substance/The level of expressed mRNA in the absence of chemical substance” value (yeast gene YKL164C) of the same compound?
A: 0.9

Q: What about the “The level of expressed mRNA in the presence of chemical substance/The level of expressed mRNA in the absence of chemical substance” value (yeast gene YKL210W) of the same compound?
A: 2.9

Q: What about the “The level of expressed mRNA in the presence of chemical substance/The level of expressed mRNA in the absence of chemical substance” value (yeast gene YKR053C) of the same compound?
A: 0.7

Q: And the “The level of expressed mRNA in the presence of chemical substance/The level of expressed mRNA in the absence of chemical substance” value (yeast gene YLL039C)?
A: 2.2

Q: What about the “The level of expressed mRNA in the presence of chemical substance/The level of expressed mRNA in the absence of chemical substance” value (yeast gene YLL060C) of the same compound?
A: 1.8

Q: And the “The level of expressed mRNA in the presence of chemical substance/The level of expressed mRNA in the absence of chemical substance” value (yeast gene YLR006C)?
A: 0.8

Q: What about the “The level of expressed mRNA in the presence of chemical substance/The level of expressed mRNA in the absence of chemical substance” value (yeast gene YLR109W) of the same compound?
A: 3.2

Q: What about the “The level of expressed mRNA in the presence of chemical substance/The level of expressed mRNA in the absence of chemical substance” value (yeast gene YLR259C) of the same compound?
A: 2.5

Q: What about the “The level of expressed mRNA in the presence of chemical substance/The level of expressed mRNA in the absence of chemical substance” value (yeast gene YML007W) of the same compound?
A: 1.7

Q: And the “The level of expressed mRNA in the presence of chemical substance/The level of expressed mRNA in the absence of chemical substance” value (yeast gene YMR021C)?
A: 1.4

Q: What about the “The level of expressed mRNA in the presence of chemical substance/The level of expressed mRNA in the absence of chemical substance” value (yeast gene YMR173W) of the same compound?
A: 2.0

Q: And the “The level of expressed mRNA in the presence of chemical substance/The level of expressed mRNA in the absence of chemical substance” value (yeast gene YMR186W)?
A: 2.4

Q: And the “The level of expressed mRNA in the presence of chemical substance/The level of expressed mRNA in the absence of chemical substance” value (yeast gene YNL064C)?
A: 1.1

Q: And the “The level of expressed mRNA in the presence of chemical substance/The level of expressed mRNA in the absence of chemical substance” value (yeast gene YNR076W)?
A: 0.9

Q: And the “The level of expressed mRNA in the presence of chemical substance/The level of expressed mRNA in the absence of chemical substance” value (yeast gene YOL064C)?
A: 2.0

Q: What about the “The level of expressed mRNA in the presence of chemical substance/The level of expressed mRNA in the absence of chemical substance” value (yeast gene YOL161C) of the same compound?
A: 1.2

Q: And the “The level of expressed mRNA in the presence of chemical substance/The level of expressed mRNA in the absence of chemical substance” value (yeast gene YOR008C)?
A: 0.9

Q: What about the “The level of expressed mRNA in the presence of chemical substance/The level of expressed mRNA in the absence of chemical substance” value (yeast gene YOR010C) of the same compound?
A: 0.5

Q: What about the “The level of expressed mRNA in the presence of chemical substance/The level of expressed mRNA in the absence of chemical substance” value (yeast gene YOR027W) of the same compound?
A: 5.1

Q: And the “The level of expressed mRNA in the presence of chemical substance/The level of expressed mRNA in the absence of chemical substance” value (yeast gene YOR208W)?
A: 1.5

Q: And the “The level of expressed mRNA in the presence of chemical substance/The level of expressed mRNA in the absence of chemical substance” value (yeast gene YPL059W)?
A: 0.7

Q: And the “The level of expressed mRNA in the presence of chemical substance/The level of expressed mRNA in the absence of chemical substance” value (yeast gene YPL106C)?
A: 3.1

Q: And the “The level of expressed mRNA in the presence of chemical substance/The level of expressed mRNA in the absence of chemical substance” value (yeast gene YPL140C)?
A: 0.9

Q: What about the “The level of expressed mRNA in the presence of chemical substance/The level of expressed mRNA in the absence of chemical substance” value (yeast gene YPL194W) of the same compound?
A: 1.4

Q: And the “The level of expressed mRNA in the presence of chemical substance/The level of expressed mRNA in the absence of chemical substance” value (yeast gene YPL223C)?
A: 2.3

Q: And the “The level of expressed mRNA in the presence of chemical substance/The level of expressed mRNA in the absence of chemical substance” value (yeast gene YPL240C)?
A: 2.9

Q: What about the “The level of expressed mRNA in the presence of chemical substance/The level of expressed mRNA in the absence of chemical substance” value (yeast gene YPR005C) of the same compound?
A: 0.7

Q: And the “The level of expressed mRNA in the presence of chemical substance/The level of expressed mRNA in the absence of chemical substance” value (yeast gene YPR026W)?
A: 2.3
